Source: ChEMBL document CHEMBL1201862, “PubChem BioAssay data set” (2004)
The source made the active and inactive calls.

What was measured:
[1] = inhibitors of Trypanosoma cruzi host-cell infection, confirmation, beta-gal luminescence, NIH3T3 host cells (AID 2630); format: functional, cell-based; details: Mus musculus
[2] = Luminescence Cell-Based Secondary HTS screen to identify cytotoxic compounds of NIH3T3 cells. [Related pubchem assays: 1885, 1968 ]; format: functional
[3] = Luminescence Cell-Based/Microorganism Confirmation at Dose of Inhibitors of Trypanosoma cruzi Infection. [Related pubchem assays: 1885, 1968 ]; format: functional
[4] = cytotoxicity toward NIH3T3 fibroblasts, dose response, counter-screen, cell-based, ATP luminescence, mouse fibroblasts (AID 2010); format: functional;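 also: cells exposed to compound for about 90 hours before reading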
[5] = inhibitors of intracellular T. cruzi replication, confirmation, NIH3T3 host cells, beta-gal luminescence (AID 2044); format: functional, cell-based;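 also: intracellular parasites grown in NIH/3T3 mouse fibroblasts as host cells; luminescent beta-galactosidase reporter signal from transgenic T. cruzi replicating inside host cells; inhibitors lower the luminescence signal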
[6] = test system: MDCK; test: MDCK cell cytotoxicity, dose response, cytotoxicity control (AID 540296); format: functional; details: Canis lupus familiaris
[7] = biological target: Nonstructural protein 1 (Influenza A virus, UniProt Q194T2); format: functional, Influenza A virus (A/California/07/2009(H1N1))
[8] = test system: MDCK; test: antiviral activity against H1N1 influenza, dose response, cell-based, strain KY180 (AID 540254); format: functional; details: Canis lupus familiaris
[9] = biological target: Keap1/Nrf2 (Homo sapiens, UniProt Q14145); test: Keap1-Nrf2 protein-protein interaction inhibitors, dose response, biochemical, fluorescence polarization, cherry-picked samples (AID 588683)
[10] = test system: HeLa; test: HeLa cell cytotoxicity, dose response, cytotoxicity control for MITF activator project, CellTiter-Glo luminescence, cherry-pick samples (AID 540259); format: functional, cell-based; details: Homo sapiens
[11] = biological target: T1, Intestinal-type alkaline phosphatase (Homo sapiens, UniProt P09923); test: human intestinal alkaline phosphatase activators, dose response, biochemical, luminescence, uHTS hits (AID 463120); format: functional
[12] = biological target: T1, Intestinal-type alkaline phosphatase; test: human IAP activators, dose response, biochemical, luminescent, uHTS hits, set 2 (AID 488817); format: functional;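 also: potency of activators that raise enzyme activity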
[13] = biological target: T2, Alkaline phosphatase, tissue-nonspecific isozyme (Homo sapiens, UniProt P05186); test: TNAP enzyme activators, dose response, selectivity assay for human IAP activator project, biochemical, TNAP isozyme, human IAP uHTS hits (AID 488886); format: functional;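 also: potency of compounds raising TNAP activity as a selectivity check on IAP activators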
T2 sequence (P05186 whole entry): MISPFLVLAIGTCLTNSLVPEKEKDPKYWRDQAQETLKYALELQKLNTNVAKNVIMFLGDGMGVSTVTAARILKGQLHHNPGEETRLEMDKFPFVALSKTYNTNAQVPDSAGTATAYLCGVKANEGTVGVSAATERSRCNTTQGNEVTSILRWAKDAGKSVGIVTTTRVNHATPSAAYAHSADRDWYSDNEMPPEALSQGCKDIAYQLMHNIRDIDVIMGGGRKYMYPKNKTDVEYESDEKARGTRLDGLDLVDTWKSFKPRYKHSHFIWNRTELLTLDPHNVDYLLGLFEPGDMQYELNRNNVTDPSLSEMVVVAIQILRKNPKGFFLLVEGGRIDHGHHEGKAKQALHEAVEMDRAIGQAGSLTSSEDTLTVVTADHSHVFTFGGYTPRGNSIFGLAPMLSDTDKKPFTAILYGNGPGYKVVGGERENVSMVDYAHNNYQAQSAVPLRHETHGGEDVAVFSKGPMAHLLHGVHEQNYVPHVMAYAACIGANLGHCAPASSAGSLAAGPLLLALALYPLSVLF

[14] = biological target: Intestinal-type alkaline phosphatase (Mus musculus, UniProt P24822); test: PubChem AID 488875; format: functional
[15] = Luminescence Cell-Based Dose Retest to Confirm Inhibitors of Cancer Stem Cells. [Related pubchem assays (depositor defined):AID2717, AID2721]; format: functional; details: Homo sapiens
[16] = cytotoxicity in HMLE control line with eGFP shRNA, dose response, counter-screen for HMLE_sh_ECad selective toxicity project, cell-based, HMLE_sh_eGFP, luminescence (AID 463074); format: functional, Homo sapiens;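 also: HMLE human mammary epithelial cells expressing control shRNA against eGFP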
[17] = biological target: Phosphoethanolamine/phosphocholine phosphatase (Homo sapiens, UniProt Q8TCT1); test: SAR assay for compounds that inhibit PHOSPHO1. [Related pubchem assays (depositor defined):AID1545, AID1565, AID1574]
[18] = biological target: Phosphomannomutase 2 (Homo sapiens, UniProt O15305); test: Counter screen SAR assay for PMM2 inhibitors via a fluorescence intensity assay. [Related pubchem assays (depositor defined):AID1545, AID1574]
[19] = biological target: T3, Mannose-6-phosphate isomerase (Homo sapiens, UniProt P34949); test: PMI enzyme inhibitors, confirmation, biochemical, fluorescence intensity (AID 1535)
T3 sequence (P34949 whole entry): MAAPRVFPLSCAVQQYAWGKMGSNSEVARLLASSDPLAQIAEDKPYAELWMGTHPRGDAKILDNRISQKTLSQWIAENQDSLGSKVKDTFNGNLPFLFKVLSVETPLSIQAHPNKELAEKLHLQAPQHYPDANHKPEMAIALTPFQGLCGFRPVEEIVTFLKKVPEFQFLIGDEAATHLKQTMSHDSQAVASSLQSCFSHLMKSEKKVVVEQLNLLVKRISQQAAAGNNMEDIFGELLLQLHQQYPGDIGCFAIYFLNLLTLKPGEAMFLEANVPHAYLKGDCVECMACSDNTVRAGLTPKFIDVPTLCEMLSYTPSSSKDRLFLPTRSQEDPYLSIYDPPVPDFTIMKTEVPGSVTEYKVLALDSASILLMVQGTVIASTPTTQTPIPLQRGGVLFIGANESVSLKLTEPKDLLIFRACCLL

[20] = biological target: T4, Hexokinase-1 (Homo sapiens, UniProt P19367); test: HK1 enzyme inhibition by HKDC1 hits, SAR follow-up, selectivity assay for HKDC1 inhibitor project, biochemical, set 2, resazurin fluorescence coupled readout (AID 588356); format: functional
T4 sequence (P19367 whole entry): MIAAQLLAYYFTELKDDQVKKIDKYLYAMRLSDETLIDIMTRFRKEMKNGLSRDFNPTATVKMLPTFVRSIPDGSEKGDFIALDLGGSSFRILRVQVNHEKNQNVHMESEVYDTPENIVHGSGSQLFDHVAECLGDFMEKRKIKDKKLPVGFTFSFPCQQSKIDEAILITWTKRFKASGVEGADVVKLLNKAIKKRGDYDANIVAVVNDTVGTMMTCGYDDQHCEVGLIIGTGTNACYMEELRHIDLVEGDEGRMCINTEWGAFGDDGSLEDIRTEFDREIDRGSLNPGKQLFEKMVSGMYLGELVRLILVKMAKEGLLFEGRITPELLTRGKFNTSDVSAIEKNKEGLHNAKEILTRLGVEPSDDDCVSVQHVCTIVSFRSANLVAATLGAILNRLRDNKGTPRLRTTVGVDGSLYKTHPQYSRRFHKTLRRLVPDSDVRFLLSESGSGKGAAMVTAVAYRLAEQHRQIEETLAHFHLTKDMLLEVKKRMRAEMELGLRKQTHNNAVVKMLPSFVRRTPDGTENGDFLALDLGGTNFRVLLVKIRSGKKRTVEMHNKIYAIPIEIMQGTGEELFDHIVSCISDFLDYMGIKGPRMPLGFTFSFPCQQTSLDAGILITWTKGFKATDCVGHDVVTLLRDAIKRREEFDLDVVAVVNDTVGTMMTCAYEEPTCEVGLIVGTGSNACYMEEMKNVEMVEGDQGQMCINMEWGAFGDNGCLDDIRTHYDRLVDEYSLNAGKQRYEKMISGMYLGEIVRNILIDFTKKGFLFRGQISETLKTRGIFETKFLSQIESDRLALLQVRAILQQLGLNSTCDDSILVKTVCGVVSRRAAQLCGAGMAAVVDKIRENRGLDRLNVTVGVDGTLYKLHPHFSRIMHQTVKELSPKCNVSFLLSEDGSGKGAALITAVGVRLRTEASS

[21] = biological target: T5, Hexokinase HKDC1 (Homo sapiens, UniProt Q2TB90); test: HKDC1 hexokinase inhibitors, SAR follow-up, biochemical, set 2 (AID 588355); format: functional
T5 sequence (Q2TB90 whole entry): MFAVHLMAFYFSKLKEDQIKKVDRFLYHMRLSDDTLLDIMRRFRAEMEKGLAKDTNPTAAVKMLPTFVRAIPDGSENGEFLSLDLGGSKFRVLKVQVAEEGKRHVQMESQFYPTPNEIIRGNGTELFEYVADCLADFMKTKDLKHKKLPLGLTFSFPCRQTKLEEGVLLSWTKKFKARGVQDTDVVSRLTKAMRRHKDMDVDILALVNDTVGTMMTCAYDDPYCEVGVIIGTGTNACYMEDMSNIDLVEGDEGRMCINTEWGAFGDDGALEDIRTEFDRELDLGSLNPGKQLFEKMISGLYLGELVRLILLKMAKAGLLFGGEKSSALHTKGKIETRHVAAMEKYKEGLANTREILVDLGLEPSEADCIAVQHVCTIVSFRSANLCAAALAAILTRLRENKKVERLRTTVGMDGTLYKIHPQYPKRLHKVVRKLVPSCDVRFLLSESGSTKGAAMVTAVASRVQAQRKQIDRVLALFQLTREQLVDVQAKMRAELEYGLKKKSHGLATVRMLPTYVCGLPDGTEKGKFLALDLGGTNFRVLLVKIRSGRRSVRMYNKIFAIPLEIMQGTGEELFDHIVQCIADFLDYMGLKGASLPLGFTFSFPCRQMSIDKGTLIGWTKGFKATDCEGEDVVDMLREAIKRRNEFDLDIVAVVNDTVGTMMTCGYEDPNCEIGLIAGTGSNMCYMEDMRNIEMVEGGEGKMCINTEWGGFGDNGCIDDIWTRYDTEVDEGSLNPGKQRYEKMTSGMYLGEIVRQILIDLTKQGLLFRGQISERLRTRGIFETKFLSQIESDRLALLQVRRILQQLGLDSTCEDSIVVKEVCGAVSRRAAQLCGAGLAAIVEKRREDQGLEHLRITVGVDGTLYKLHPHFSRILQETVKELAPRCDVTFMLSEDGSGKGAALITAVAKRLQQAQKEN

[22] = biological target: T6, Short transient receptor potential channel 4 (Mus musculus, UniProt Q9QUQ5); test: SAR Analysis for the identification of selective inhibits of the transient receptor potential cation channel C4 (TRPC4): Automated Electrophysiology_2. [Related pubchem assays (depositor defined):AID2256]; format: functional
T6 sequence (Q9QUQ5 whole entry): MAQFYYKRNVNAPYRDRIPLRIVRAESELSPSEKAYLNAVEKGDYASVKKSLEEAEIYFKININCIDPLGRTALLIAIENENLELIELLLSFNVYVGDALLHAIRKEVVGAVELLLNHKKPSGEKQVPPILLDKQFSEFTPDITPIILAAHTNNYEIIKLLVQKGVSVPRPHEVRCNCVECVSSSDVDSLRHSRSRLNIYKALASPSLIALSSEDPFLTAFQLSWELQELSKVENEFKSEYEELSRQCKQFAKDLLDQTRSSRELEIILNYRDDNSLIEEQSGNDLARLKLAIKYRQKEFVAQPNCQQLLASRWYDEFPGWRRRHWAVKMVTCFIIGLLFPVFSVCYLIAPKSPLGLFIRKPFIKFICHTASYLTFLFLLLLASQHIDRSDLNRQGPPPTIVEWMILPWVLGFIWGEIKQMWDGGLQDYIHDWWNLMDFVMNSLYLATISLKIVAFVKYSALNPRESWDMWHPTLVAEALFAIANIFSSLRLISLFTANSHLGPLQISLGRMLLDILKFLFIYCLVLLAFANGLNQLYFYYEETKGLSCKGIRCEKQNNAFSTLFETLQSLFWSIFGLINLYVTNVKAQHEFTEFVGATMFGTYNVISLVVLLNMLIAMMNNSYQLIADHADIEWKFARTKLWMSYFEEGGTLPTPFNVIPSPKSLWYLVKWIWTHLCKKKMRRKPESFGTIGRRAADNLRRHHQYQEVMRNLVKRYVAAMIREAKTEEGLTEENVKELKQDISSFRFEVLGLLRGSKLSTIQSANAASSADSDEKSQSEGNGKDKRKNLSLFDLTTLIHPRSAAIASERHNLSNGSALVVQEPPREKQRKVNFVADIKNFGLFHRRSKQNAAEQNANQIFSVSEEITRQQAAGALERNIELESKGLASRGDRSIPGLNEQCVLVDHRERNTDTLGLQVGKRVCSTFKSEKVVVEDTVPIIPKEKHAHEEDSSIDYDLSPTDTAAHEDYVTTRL

[23] = biological target: Dual specificity tyrosine-phosphorylation-regulated kinase 1A (Rattus norvegicus, UniProt Q63470); format: biochemical, Homo sapiens
[24] = biological target: Heat shock protein HSP 90-alpha (Homo sapiens, UniProt P07900); format: functional, organism-based

T1 sequence (P09923 whole entry): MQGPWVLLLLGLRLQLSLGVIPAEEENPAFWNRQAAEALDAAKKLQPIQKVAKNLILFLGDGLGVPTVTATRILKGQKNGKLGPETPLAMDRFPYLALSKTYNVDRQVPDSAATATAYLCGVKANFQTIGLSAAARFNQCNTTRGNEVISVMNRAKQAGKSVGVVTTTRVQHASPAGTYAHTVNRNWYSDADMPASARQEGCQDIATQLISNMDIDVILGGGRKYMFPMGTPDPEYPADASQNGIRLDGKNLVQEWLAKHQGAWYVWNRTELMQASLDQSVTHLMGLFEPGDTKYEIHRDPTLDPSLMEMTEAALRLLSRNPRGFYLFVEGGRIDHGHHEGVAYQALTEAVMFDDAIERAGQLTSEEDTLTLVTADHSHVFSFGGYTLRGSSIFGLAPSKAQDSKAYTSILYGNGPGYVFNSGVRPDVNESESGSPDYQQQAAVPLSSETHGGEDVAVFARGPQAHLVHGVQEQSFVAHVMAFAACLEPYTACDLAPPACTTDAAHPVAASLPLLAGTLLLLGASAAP
Chain of Phosphomannomutase 2 (O15305 whole entry): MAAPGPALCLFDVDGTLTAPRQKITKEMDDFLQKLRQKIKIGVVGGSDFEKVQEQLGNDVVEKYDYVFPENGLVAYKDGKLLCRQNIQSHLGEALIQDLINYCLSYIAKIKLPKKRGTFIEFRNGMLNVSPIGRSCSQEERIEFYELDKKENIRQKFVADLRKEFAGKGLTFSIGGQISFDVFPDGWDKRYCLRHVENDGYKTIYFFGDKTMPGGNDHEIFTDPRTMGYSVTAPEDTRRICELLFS
Chain of Phosphoethanolamine/phosphocholine phosphatase (Q8TCT1 whole entry): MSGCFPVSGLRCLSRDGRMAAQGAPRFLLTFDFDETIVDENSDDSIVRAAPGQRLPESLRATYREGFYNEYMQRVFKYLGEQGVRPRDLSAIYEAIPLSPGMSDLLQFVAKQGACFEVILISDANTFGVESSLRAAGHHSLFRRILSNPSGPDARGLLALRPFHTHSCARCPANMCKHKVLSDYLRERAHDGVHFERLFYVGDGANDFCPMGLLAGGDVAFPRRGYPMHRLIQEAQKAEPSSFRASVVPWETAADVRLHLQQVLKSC
Chain of Keap1/Nrf2 (Q16236 whole entry): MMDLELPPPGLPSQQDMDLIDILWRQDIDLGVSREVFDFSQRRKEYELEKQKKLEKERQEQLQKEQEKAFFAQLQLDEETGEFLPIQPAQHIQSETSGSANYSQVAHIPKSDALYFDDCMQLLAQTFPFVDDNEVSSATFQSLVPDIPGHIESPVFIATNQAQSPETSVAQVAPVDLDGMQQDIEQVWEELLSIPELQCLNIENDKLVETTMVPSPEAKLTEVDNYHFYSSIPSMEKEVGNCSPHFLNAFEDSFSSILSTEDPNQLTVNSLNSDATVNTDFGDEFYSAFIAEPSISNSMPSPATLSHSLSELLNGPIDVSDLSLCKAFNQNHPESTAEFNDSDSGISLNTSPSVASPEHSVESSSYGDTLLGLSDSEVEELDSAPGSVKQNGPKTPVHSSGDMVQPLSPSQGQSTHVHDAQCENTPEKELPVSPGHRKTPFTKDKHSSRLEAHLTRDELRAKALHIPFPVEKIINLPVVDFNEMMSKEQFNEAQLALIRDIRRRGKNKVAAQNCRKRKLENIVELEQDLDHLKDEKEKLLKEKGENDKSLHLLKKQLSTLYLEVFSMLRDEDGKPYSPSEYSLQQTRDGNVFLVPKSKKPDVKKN
Chain of Keap1/Nrf2 (Q14145 whole entry): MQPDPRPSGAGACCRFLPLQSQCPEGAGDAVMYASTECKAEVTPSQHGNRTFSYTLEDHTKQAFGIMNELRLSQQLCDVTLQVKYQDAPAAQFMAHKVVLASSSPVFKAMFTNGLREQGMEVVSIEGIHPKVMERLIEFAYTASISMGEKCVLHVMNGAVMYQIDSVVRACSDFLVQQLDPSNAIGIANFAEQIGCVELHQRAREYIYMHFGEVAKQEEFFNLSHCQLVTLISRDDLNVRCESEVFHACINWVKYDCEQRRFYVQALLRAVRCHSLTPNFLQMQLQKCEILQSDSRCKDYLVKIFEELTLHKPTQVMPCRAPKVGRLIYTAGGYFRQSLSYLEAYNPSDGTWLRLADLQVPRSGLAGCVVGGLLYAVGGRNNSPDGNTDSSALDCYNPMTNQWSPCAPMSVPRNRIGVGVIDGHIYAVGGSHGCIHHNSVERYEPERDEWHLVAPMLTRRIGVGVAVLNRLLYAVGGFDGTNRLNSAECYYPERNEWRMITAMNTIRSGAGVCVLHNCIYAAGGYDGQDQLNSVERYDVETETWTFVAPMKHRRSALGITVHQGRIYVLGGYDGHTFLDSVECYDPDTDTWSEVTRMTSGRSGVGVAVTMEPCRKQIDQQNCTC
Chain of Intestinal-type alkaline phosphatase (Mus musculus, UniProt P24822) (P24822 whole entry): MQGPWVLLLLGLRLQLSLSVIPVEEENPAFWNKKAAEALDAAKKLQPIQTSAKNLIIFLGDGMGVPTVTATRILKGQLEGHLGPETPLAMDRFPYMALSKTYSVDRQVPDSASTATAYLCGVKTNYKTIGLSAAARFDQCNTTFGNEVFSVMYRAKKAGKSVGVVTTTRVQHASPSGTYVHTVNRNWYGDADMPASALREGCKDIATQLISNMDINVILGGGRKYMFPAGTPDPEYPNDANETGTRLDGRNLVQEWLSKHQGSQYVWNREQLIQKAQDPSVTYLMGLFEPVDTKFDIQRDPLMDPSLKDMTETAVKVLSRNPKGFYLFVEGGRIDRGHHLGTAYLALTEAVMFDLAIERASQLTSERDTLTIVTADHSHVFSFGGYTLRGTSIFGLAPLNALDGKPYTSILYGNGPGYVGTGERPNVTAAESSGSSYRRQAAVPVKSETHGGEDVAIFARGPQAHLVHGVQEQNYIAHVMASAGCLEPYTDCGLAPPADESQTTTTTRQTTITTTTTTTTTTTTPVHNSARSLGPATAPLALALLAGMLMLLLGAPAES
Chain of Nonstructural protein 1 (Q194T2 whole entry): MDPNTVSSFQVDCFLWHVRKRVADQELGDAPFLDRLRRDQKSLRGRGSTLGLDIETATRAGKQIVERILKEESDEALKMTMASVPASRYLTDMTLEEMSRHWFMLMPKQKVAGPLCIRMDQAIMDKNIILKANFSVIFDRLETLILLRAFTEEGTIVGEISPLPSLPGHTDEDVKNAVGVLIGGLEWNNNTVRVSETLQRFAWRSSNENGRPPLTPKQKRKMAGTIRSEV

Compound: Cc1ccccc1OCCCCCn1ccnc1
- EC50 [1]: 0.417 µM (active)
- EC50 [2]: 116 µM (active)
- EC50 [3]: 0.417 µM (active)
- EC50 [4]: > 60 µM (not active)
- EC50 [5]: 0.54 µM (active)

Compound: CCOC(=O)c1c(CN(C)C)oc2cc(CN(C)C)c(O)c(CSc3ccccc3)c12
- CC50 [6]: 19.5 µM (active)
- IC50 [7]: > 100 µM (active)
- IC50 [8]: 22.6 µM (active)

Compound: CCCCOc1ccc(C2OC34CCCCC3C(C#N)(C#N)C2(C#N)C(=N)O4)cc1 (centres undefined)
- AC50 [9]: > 52 µM (inactive)

Compound: CCCN(Cc1ccc(C)cc1)C(=O)c1ccc(CNS(=O)(=O)c2ccc(C(C)=O)cc2)cc1
- AC50 [10]: 37.4 µM (active)

Compound: COc1ccc(CN2CCC(n3nccc3NC(=O)CCCc3ccccc3)CC2)cc1C
- EC50 [11]: 77.4 µM (active)
- EC50 [12]: 72.5 µM (active)
- EC50 [13]: 70.1 µM (active)
- EC50 [14]: 75 µM (active)

Compound: Cc1ccc2ncnc(Nc3ccc(C)c(C)c3)c2c1
- AC50 [15]: 1.03 µM (active)
- AC50 [16]: 63.8 µM (active)

Compound: O=c1c2c([N+](=O)[O-])cc([N+](=O)[O-])cc2sn1-c1cccc(F)c1
- IC50 [17]: 0.0348 µM (active)
- IC50 [18]: 2.08 µM (active)
- IC50 [19]: 30.1 µM (active)

Compound: Cc1ccc(NC2c3ccccc3C(=O)N2c2ccccc2C)cc1 (centres undefined)
- IC50 [20]: > 80 µM (inactive)
- IC50 [21]: > 80 µM (inactive)

Compound: Cc1cc(N2CCN(c3ccccc3C#N)CC2)nc2ccccc12
- IC50 [22]: 8.9 µM (active)

Compound: O=[N+]([O-])c1cc(/C=N/O)ccc1Oc1ccccc1Cl
- AC50 [23]: 3.19 µM (active)
- AC50 [24]: 3.04 µM (active)
